{
  "source": "patent US20130224223A1",
  "about": "“Compositions and Methods for Treating Neurological Disorders” (GEORGIA REGENTS UNIVERSITY, priority 2007, published 2013)",
  "key": {"cortical slices": {"test_system": "cortical slices", "assay": "[3H]GABA release from prefrontal cortical slices", "assay_type": "cell-based, mice", "conditions": "20 mM KCl", "procedure": "FIG. 2A is a line graph of [^3H]GABA release fraction/total fraction versus time (mins). Cortical slices were preloaded with [^3H]GABA for 30 min in the presence of b-alanine (1 mM), an inhibitor of [^3H]GABA uptake by glial cells, aminooxyacetic acid (0.1 mM), an inhibitor of GABA degradation, and nipecotic acid (1 mM), an inhibitor of the GABA transporter in neurons. Basal and depolarization (20 mM KCl)-evoked release of [^3H]GABA were monitored sequentially. Controls (open circles) and NRG1 (closed circles). FIG. 2B is a line graph of percent [^3H]GABA release versus NRG1 concentration (nM). Basal (open circles) K+ evoked (closed circles). […] FIG. 2D is a line graph of cumulative counts versus mIPSC amplitude (pA). Controls (open circles) and NRG1 (closed circles). FIG. 2E is a line graph of cumulative counts versus mIPSC interevent interval (ms). Controls (open circles) and NRG1 (closed circles). FIG. 2F is a bar graph of mIPSC (percent) in control and NRG1 treated pyramidal neurons in prefrontal cortical slices (n=12). Amplitude (clear) and Frequencies (hatched). FIG. 2G is a bar graph of percent eIPSC amplitude in prefrontal cortical slices treated with NRG1 versus control or washout. n=12, *p<0.01. Representative eIPSCs of control, NRG1-treated, or NRG1-treated/washed slices are shown on top. FIG. 2H is a line graph of percent eIPSC amplitude versus NRG1 (nM). n=6, *p<0.05, **p<0.01. FIG. 2I is a bar graph of K^+ evoked [^3H]GABA release (percent) (left axis, clear rectangles) and eIPSC amplitude (percent) (right axis, hatched rectangles) in prefrontal cortical slices treated with NRG1, denature NRG1, or BDNF. n=8 for [^3H]GABA release; for eIPSCs, n=6 for control, NRG1, and denatured NRG1, and n=4 for BDNF. *p<0.05, #p<0.05; **p<0.05, ##<0.01.\nNRG1 may regulate GABAergic neurotransmission. To test this hypothesis, the effects of NRG1 on GABA release in cortical slices were determined by both biochemical and electrophysiological approaches. Basal [^3H]GABA release was low, at a rate of 3.75±0.35% (n=8) of total radioactivity per 10 min (FIG. 2A). Treatment of slices with 20 mM KCl, a condition known to depolarize neurons, increased [^3H]GABA release by 2.5-3.5 folds within 10 min (FIG. 2A). NRG1 had no effect on basal [^3H]GABA release; by contrast, it increased depolarization-evoked GABA release in a dose-dependent manner (FIG. 2B). […] Furthermore, the NRG regulation remained unchanged in the presence of antagonists of metabotropic glutamate receptors, cholinergic receptors, serotonin receptors, adrenergic receptors and/or dopamine receptors. As a control, BDNF decreased depolarization-evoked GABA release and eIPSCs in cortical slices, in agreement with earlier studies (Canas, et al., Brain Res, 1016:72-78 (2004); Frerking, et al., J Neurophysiol, 80:3383-3386 (1998))."}, "[1]": {"test_system": "prefrontal cortical slices", "assay": "eIPSC recording in prefrontal cortical slices", "assay_type": "cell-based, mice", "procedure": "Transverse prefrontal cortical slices (0.3 mm) were prepared from P28-P36 mice using a Vibroslice (Leica VT 10005) in the ice-cold solution, which contained 2.5 mM KCl, 1.25 mM NaH2PO4, 10 mM MgSO4, 0.5 mMCaCl2, 26 mM NaHCO3, 10 mM glucose, and 230 mM sucrose. Slices were allowed to recover for at least 2 hr in ACSF (1 hr at 34° C. followed by 1 hr at 22° C.) in a solution containing 126 mM NaCl, 2.5 mM KCl, 1.25 mM NaH2PO4, 2 mM MgSO4, 2 mM CaCl2, 26 mM NaHCO3, and 10 mM glucose. Slices were placed in the recording chamber and superfused (1.5 ml/min) with ACSF at 34° C. All solutions were saturated with 95% O2/5% CO2. Neurons were visualized with an IR-sensitive CCD camera with a 403 water-immersion lens (Zeiss, Axioskop2 Fsplus) and recorded using whole-cell voltage-clamp techniques (MultiClamp 7008 Amplifier, Digidata 1320A analog-to-digital converter) and pClamp 9.2 software (Axon Instruments). Glass pipettes were filled with the solution containing 125 mM Cs-gluconate, 10 mM CsCl, 1 mM MgCl2, 10 mM HEPES, 1 mM EGTA, 0.1 mM CaCl2, 10 mM sodium phosphocreatine, 4 mM Mg-ATP, 0.3 mM GTP, 0.2 mM leupeptin, and 5 mM lidocaine N-ethylchloride (QX314) (pH 7.2, with the osmolarity adjusted to 280 mOsm with sucrose). The resistance of pipettes was 2-3 MΩ For mIPSC recording, QX314 was omitted in the pipette filling solution, whereas […] was included in the superfusing solution. eIPSCs were generated with a two-concentric bipolar stimulating electrode ([…] pole separation; FHC, ME) positioned about […] from the neuron under recording. Single or paired pulses of 0.2 ms were delivered at 0.1 Hz and synchronized using a Mater-8 stimulator (A.M.P.I). The holding potential for both mIPSCs and eIPSCs was −65 mV. All experiments were done at 34° C. in the presence of 6-cyano-7-nitroquinoxaline-2,3-dione (CNQX, […]) and AP-5 ([…]) to block AMPA/NMDA receptors. Data were collected when series resistance fluctuated within 15% of initial values (8-15 MU), they were filtered at 2 kHz, and they were sampled at 10 kHz."}, "[2]": {"conditions": "substance alone, no other exogenous agent, AG1478/AG879 5 mM [sic]"}},
  "data": [
    {"smiles": "COc1cc2ncnc(Nc3cccc(Cl)c3)c2cc1OC", "note": "[AG1478]", "values": [
      {"measurement": "depolarization-evoked [3H]GABA release", "setting": "cortical slices; [2]", "value": "decreased"},
      {"measurement": "NRG1-enhanced evoked GABA release", "setting": "cortical slices; substance given with exogenous NRG1", "value": "prevented"},
      {"measurement": "evoked IPSCs (eIPSCs)", "setting": "[1]; [2]", "value": "decreased"},
      {"measurement": "NRG1 potentiation of eIPSCs", "setting": "[1]; substance given with exogenous NRG1 (5 nM)", "value": "prevented"}
    ]}
  ]
}
